{"source": "patent US20110257090A1", "about": "“SOLUTIONS FOR VOLUME THERAPY” (FRESENIUS KABI DEUTSCHLAND GMBH, priority 2008, published 2011)", "origin": "cited, not measured here", "system": "cultured mammalian cells", "details": "long-term studies"}
{"smiles": "O=S(=O)(O)CCN(CCO)CCO", "note": "[BES, N,N-bis(2-hydroxyethyl)-2-aminoethanesulfonic acid]", "values": [{"measurement": "toxicity to cultured mammalian cells", "value": "non-toxic"}]}
